According to patent US12195490B2, “STRAD-binding agents and uses thereof” (The Regents of the University of California, priority 2020, dated 2025):

system: ACHN cell line; assay: drug screen of the SelleckChem kinase inhibitor library with and without 5 uM SU-329, Cell-Titer Glo after 5 days; assay type: cell-based; settings: kinase inhibitor at 200 nM with and without 5 uM SU329; ACHN cell line; 5 days; Cell-Titer Glo

Question: Which log2fc does the source give for `O=C(O)[C@]1(Cc2cccc(Nc3nccs3)n2)CC[C@@H](Oc2cccc(Cl)c2F)CC1` [MK-5108 (VX-689)] here?
Answer: −0.2429

Question: For `CCCCOc1c(C(=O)c2c(F)cc(C)cc2F)c[nH]c2nncc1-2` [BMS-265246], which log2fc is on record?
Answer: −0.1077

Question: `Cc1cnc(NC(=O)Nc2cc(Br)c(C)cc2OC[C@@H]2CNCCO2)cn1` [LY2603618] was tested. Which log2fc did it give?
Answer: −0.1739

Question: `COc1ccc(CNC(=O)Nc2ncc([N+](=O)[O-])s2)cc1` [AR-A014418] was tested. Which log2fc did it give?
Answer: 0.1293

Question: For `O=C(Nc1ccc(-c2ccnc(Nc3ccc(N4CCOCC4)cc3)n2)cc1)C1CCCN1` (centres unmarked) [XL019], which log2fc is on record?
Answer: −0.1669

Question: `Cc1ccc(-n2nc(C(C)(C)C)cc2NC(=O)Nc2ccc(OCCN3CCOCC3)c3ccccc23)cc1` [Doramapimod (BIRB 796)] was tested. Which log2fc did it give?
Answer: −0.5477

Question: Which log2fc does the source give for `COc1cc(CCc2cc(NC(=O)c3ccc(N4CC(C)NC(C)C4)cc3)n[nH]2)cc(OC)c1` (centres unmarked) [AZD4547] here?
Answer: 0.4725

Question: With `Cc1nc(Nc2ncc(C(=O)Nc3c(C)cccc3Cl)s2)cc(N2CCN(CCO)CC2)n1` [Dasatinib, dasatinib, reference compound] as the compound, how does the log2fc read?
Answer: −0.196

Question: For `CN1CCC(COc2cnc(-c3cccc(Cn4nc(-c5cccc(C#N)c5)ccc4=O)c3)nc2)CC1` [Tepotinib (EMD 1214063)], which log2fc is on record?
Answer: 0.04059

Question: For `C[C@@H]1CN(CC(=O)Nc2ccc3c(c2)Cc2cccc(-c4cc(=O)cc(N5CCOCC5)o4)c2S3)C[C@H](C)O1` [KU-60019], which log2fc is on record?
Answer: 0.886

Question: How did the log2fc turn out when `S=C(NCc1ccc2c(c1)OCO2)N1CCN(c2ncnc3c2oc2ccccc23)CC1` [Amuvatinib (MP-470)] was run?
Answer: −0.2594

Question: For `COc1cc2nccc(Oc3ccc(NC(=O)NC4CC4)c(Cl)c3)c2cc1C(N)=O` [Lenvatinib (E7080)], which log2fc is on record?
Answer: −0.314

Question: `Cn1ncc(Cl)c1-c1cc(C(=O)N[C@H](CN)Cc2ccc(F)c(F)c2)oc1Cl` [Uprosertib (GSK2141795)] was tested. Which log2fc did it give?
Answer: −1.387

Question: With `CCN1/C(=C/C(C)=O)Sc2ccc(OC)cc21` [TG003] as the compound, how does the log2fc read?
Answer: 0.4163

Question: For `C[S+]([O-])c1ccc(-c2nc(-c3ccc(F)cc3)c(-c3ccncc3)[nH]2)cc1` (centres unmarked) [SB203580], which log2fc is on record?
Answer: −0.09424

Question: Which log2fc does the source give for `OCCn1cc(-c2cnc3nnn(Cc4ccc5ncccc5c4)c3n2)cn1` [PF-04217903] here?
Answer: 0.2177

Question: How did the log2fc turn out when `O=C(O)c1ccc(-c2c[nH]c3ncc(-c4ccccc4)cc23)cc1C1CCCC1` [GSK650394] was run?
Answer: 0.3205

Question: Which log2fc does the source give for `COc1cc(C(=O)NC2CCN(C)CC2)ccc1Nc1ncc2c(n1)N(C1CCCC1)CC(F)(F)C(=O)N2C` [Ro3280] here?
Answer: 0.4269

Question: Which log2fc does the source give for `CC(C)NC[C@@H](C(=O)N1CCN(c2ncnc3c2[C@H](C)C[C@H]3O)CC1)c1ccc(Cl)cc1` [Ipatasertib (GDC-0068)] here?
Answer: −0.5082

Question: Which log2fc does the source give for `CNC(=O)c1ccccc1Nc1nc(Nc2ccc(N3CCOCC3)cc2OC)ncc1Cl` [TAE226 (NVP-TAE226)] here?
Answer: −0.08897

Question: With `CNC(=O)c1cc(Oc2ccc(NC(=O)Nc3ccc(Cl)c(C(F)(F)F)c3)cc2)ccn1` [Sorafenib, sorafenib, reference compound] as the compound, how does the log2fc read?
Answer: 0.2462

Question: For `CC1=C(C(=O)Nc2cc3cn[nH]c3cc2F)C(c2ccc(C(F)(F)F)cc2)CC(=O)N1` (centres unmarked) [GSK429286A], which log2fc is on record?
Answer: −0.03939

Question: For `O=C(NOC[C@H](O)CO)c1ccc(F)c(F)c1Nc1ccc(I)cc1F` [PD0325901], which log2fc is on record?
Answer: 0.3925

Question: With `Oc1ccc2ccccc2c1SSc1c(O)ccc2ccccc12` [IPA-3] as the compound, how does the log2fc read?
Answer: 0.5168

Question: For `COc1ccc2c(Oc3ccc(NC(=O)c4c(C)n(CC(C)(C)O)n(-c5ccccc5)c4=O)nc3)ccnc2c1` [AMG-458], which log2fc is on record?
Answer: 0.0395

Question: With `CCc1nc(-c2cccc(C)c2)c(-c2ccnc(NC(=O)c3ccccc3)c2)s1` [TAK-715] as the compound, how does the log2fc read?
Answer: 0.02439

Question: With `CC[C@@H]1C(=O)N(C)c2cnc(Nc3ccc(C(=O)N[C@H]4CC[C@H](N5CCN(CC6CC6)CC5)CC4)cc3OC)nc2N1C(C)C` [Volasertib (BI 6727)] as the compound, how does the log2fc read?
Answer: 0.6372

Question: With `COCCNCc1ccc(-c2cc3nccc(Oc4ccc(NC(=S)NC(=O)Cc5ccc(F)cc5)cc4F)c3s2)nc1` [MGCD-265] as the compound, how does the log2fc read?
Answer: 0.4311

Question: For `Cc1ccc(F)c(NC(=O)Nc2ccc(-c3cccc4[nH]nc(N)c34)cc2)c1` [Linifanib (ABT-869)], which log2fc is on record?
Answer: −0.2483

Question: Which log2fc does the source give for `C[C@H](NC(=O)/C(C#N)=C/c1cccc(Br)n1)c1ccccc1` [WP1066] here?
Answer: −0.4551

Question: Which log2fc does the source give for `COc1ccc(COc2cc3oc(=O)c4cc(C(C)O)ccc4c3cc2OC)cc1` (centres unmarked) [Palomid 529 (P529)] here?
Answer: 0.3192

Question: For `Nc1cc(C(F)(F)F)c(-c2cc(N3CCOCC3)nc(N3CCOCC3)n2)cn1` [Buparlisib (BKM120, NVP-BKM120)], which log2fc is on record?
Answer: −1.183

Question: How did the log2fc turn out when `CN(C[C@@H]1COCCO1)S(=O)(=O)Nc1ccc2ccc3ncc(-c4cnn(C)c4)cc3c(=O)c2c1` [MK-2461] was run?
Answer: 0.09192

Question: For `COc1cc(N2CCC(N)CC2)ccc1Nc1ncc(Cl)c(-c2c[nH]c3ccccc23)n1` [AZD3463], which log2fc is on record?
Answer: −0.06328

Question: With `C#Cc1cccc(Nc2ncnc3cc(OCCOC)c(OCCO)cc23)c1.Cl` [OSI-420, desmethyl erlotinib, reference compound] as the compound, how does the log2fc read?
Answer: −0.04846

Question: How did the log2fc turn out when `Cc1cc(C(C)Nc2ccccc2)c2nc(N3CCOCC3)cc(=O)n2c1` (centres unmarked) [TGX-221] was run?
Answer: −0.3415

Question: With `Cc1ccc(NC(=O)c2ccc(CN3CCN(C)CC3)cc2)cc1Nc1nc(-c2cccnc2)cs1` [Masitinib (AB1010)] as the compound, how does the log2fc read?
Answer: 0.1874

Question: Which log2fc does the source give for `CS(=O)(=O)CCNCc1ccc(-c2ccc3ncnc(Nc4ccc(OCc5cccc(F)c5)c(Cl)c4)c3c2)o1` [Lapatinib (GW-572016) Ditosylate, lapatinib, reference compound] here?
Answer: 0.212

Question: `O=C1NC(=O)C(c2cnc3ccccn23)=C1c1cn2c3c(cc(F)cc13)CN(C(=O)N1CCCCC1)CC2` [LY2090314] was tested. Which log2fc did it give?
Answer: 1.91

Question: `N#CC1(c2ccc(NC(=O)c3cccnc3NCc3ccncc3)cc2)CCCC1` [Apatinib] was tested. Which log2fc did it give?
Answer: 0.257

Question: `COc1cc2c(c(OC)c1OC)-c1c(cc3c(c1OC)OCO3)CC(C)C(C)C2` (centres unmarked) [Schisandrin B (Sch B)] was tested. Which log2fc did it give?
Answer: 0.5674

Question: For `COc1cc(Nc2c(C#N)cnc3cc(OCCCN4CCN(C)CC4)c(OC)cc23)c(Cl)cc1Cl` [Bosutinib (SKI-606)], which log2fc is on record?
Answer: −0.1583

Question: Which log2fc does the source give for `O=C1NC(=O)C(=Cc2ccc(-c3ccc(F)cc3)o2)S1` (stereo in doubt) [CAY10505] here?
Answer: 0.3828

Question: Which log2fc does the source give for `Nc1ncnc2c1c(-c1cccc(OCc3ccccc3)c1)cn2C1CC(CN2CCC2)C1` (centres unmarked) [NVP-AEW541] here?
Answer: 0.2179

Question: How did the log2fc turn out when `Cl.Cl.Clc1ccc(Nc2nnc(Cc3ccncc3)c3ccccc23)cc1` [Vatalanib (PTK787) 2HCl] was run?
Answer: −0.4289

Question: Which log2fc does the source give for KN-62 here?
Answer: −0.07258

Question: How did the log2fc turn out when `O=C(Nc1cccc(Nc2ncc(Br)c(NCCc3cnc[nH]3)n2)c1)N1CCCC1` [BX-912] was run?
Answer: −0.4536

Question: With `Oc1ccc(-c2nc(-c3ccc(F)cc3)c(-c3ccncc3)[nH]2)cc1` [SB202190 (FHPI)] as the compound, how does the log2fc read?
Answer: −0.3986

Question: `CS(=O)(=O)N1CCN(Cc2cc3nc(-c4cccc5[nH]ncc45)nc(N4CCOCC4)c3s2)CC1` [Pictilisib (GDC-0941)] was tested. Which log2fc did it give?
Answer: −1.17

Question: For `O=C1NC(=O)C(c2ccccc2[N+](=O)[O-])=C1Nc1ccc(O)c(Cl)c1` [SB415286], which log2fc is on record?
Answer: 0.2736

Question: How did the log2fc turn out when `C[C@]1(O)C[C@@H](c2nc(-c3ccc4ccc(-c5ccccc5)nc4c3)c3c(N)nccn32)C1` [Linsitinib (OSI-906)] was run?
Answer: 0.08978

Question: How did the log2fc turn out when `Cl.Cl.NC1(c2ccc(-c3nc4ccn5c(=O)[nH]nc5c4cc3-c3ccccc3)cc2)CCC1` [MK-2206 2HCl] was run?
Answer: −0.1575

Question: With `NC(=O)c1ccc(N(C(N)=O)c2c(F)cccc2F)nc1-c1ccc(F)cc1F` [VX-702] as the compound, how does the log2fc read?
Answer: −0.1168
